Measured values taken from ChEMBL document CHEMBL4834497, “Spirocyclic Thiohydantoin Antagonists of F877L and Wild-Type Androgen Receptor for Castration-Resistant Prostate Cancer” (ACS Med Chem Lett, 2021).

Columns and labels:
[1] = Volume of distribution in steady state in CD-1 mouse at 2 mg/kg, iv; assay type: ADME, organism-based; conditions: in vivo, read-out: Vdss
[2] = Metabolic stability in human liver microsomes assessed as half life; assay type: ADME, Microsome
[3] = Oral bioavailability in CD-1 mouse at 10 mg/kg; assay type: ADME, organism-based; conditions: in vivo
[4] = AUC (0 to infinity) in CD-1 mouse at 10 mg/kg, po; assay type: ADME, organism-based; design: time infinity, route oral, dose 10 mg/kg; conditions: in vivo
[5] = Clearance in CD-1 mouse at 2 mg/kg, iv; assay type: ADME, organism-based; conditions: in vivo
[6] = Half life in CD-1 mouse at 2 mg/kg, iv; assay type: ADME, organism-based; conditions: in vivo
[7] = Cmax in CD-1 mouse at 10 mg/kg, po; assay type: ADME, organism-based; design: route oral, dose 10 mg/kg; conditions: in vivo
[8] = Metabolic stability in dog liver microsomes assessed as unchanged parent compound remaining at 10 uM incubated for 60 mins in presence of [13C2,15N-glycine]GSH by LC-MS/MS analysis; assay type: ADME, Canis lupus familiaris, Microsome; conditions: read-out: Stabilty
[9] = Metabolic stability in dog liver microsomes assessed as unchanged parent compound remaining at 10 uM incubated for 60 mins in presence of [13C2,15N-glycine]GSH and NADPH by LC-MS/MS analysis; assay type: ADME, Canis lupus familiaris, Microsome; conditions: read-out: Stabilty
Androgen receptor [10] = molecular target: T1, Androgen receptor (Homo sapiens, UniProt P10275); assay type: tissue-based, LNCaP
T1 sequence (P10275 whole entry): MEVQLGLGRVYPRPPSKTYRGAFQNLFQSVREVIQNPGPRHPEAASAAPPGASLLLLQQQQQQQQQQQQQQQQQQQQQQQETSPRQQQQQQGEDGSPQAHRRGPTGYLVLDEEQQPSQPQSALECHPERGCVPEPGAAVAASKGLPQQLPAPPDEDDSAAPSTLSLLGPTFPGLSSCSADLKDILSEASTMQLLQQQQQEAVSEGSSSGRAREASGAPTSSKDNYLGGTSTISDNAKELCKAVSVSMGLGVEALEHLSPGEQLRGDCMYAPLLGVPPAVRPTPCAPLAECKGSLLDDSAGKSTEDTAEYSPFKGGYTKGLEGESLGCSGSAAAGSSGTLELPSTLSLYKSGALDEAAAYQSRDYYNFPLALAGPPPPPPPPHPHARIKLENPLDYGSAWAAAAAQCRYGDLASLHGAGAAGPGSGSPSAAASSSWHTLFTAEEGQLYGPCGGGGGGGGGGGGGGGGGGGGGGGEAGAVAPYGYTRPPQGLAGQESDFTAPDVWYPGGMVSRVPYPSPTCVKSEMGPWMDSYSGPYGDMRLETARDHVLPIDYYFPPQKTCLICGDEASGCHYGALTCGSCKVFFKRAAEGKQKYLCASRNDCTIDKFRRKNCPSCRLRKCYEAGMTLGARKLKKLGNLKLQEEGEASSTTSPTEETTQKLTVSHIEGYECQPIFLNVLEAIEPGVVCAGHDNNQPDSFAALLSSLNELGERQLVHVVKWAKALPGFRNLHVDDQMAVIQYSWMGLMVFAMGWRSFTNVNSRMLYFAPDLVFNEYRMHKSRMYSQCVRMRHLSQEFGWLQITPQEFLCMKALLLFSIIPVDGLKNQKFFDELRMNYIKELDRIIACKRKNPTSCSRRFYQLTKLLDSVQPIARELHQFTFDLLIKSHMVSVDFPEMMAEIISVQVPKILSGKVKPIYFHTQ
Description: Antagonist activity at wild type androgen receptor in castration-resistant human LNCaP cells assessed as inhibition of R1881-stimulated receptor transcriptional activation measured after 20 to 24 hrs by Steady-Glo luciferase assay

Androgen receptor [11] = molecular target: Androgen receptor (Homo sapiens, UniProt P10275, F877L); experiment: Antagonist activity at AR F877L mutant (unknown origin) transfected in human LNCAP cells assessed as inhibition of R1881-stimulated receptor transcriptional activation measured after 20 to 24 hrs by Steady-Glo luciferase assay; assay type: cell-based
Chain of Androgen receptor (Homo sapiens, UniProt P10275, F877L) (P10275 whole entry F877L): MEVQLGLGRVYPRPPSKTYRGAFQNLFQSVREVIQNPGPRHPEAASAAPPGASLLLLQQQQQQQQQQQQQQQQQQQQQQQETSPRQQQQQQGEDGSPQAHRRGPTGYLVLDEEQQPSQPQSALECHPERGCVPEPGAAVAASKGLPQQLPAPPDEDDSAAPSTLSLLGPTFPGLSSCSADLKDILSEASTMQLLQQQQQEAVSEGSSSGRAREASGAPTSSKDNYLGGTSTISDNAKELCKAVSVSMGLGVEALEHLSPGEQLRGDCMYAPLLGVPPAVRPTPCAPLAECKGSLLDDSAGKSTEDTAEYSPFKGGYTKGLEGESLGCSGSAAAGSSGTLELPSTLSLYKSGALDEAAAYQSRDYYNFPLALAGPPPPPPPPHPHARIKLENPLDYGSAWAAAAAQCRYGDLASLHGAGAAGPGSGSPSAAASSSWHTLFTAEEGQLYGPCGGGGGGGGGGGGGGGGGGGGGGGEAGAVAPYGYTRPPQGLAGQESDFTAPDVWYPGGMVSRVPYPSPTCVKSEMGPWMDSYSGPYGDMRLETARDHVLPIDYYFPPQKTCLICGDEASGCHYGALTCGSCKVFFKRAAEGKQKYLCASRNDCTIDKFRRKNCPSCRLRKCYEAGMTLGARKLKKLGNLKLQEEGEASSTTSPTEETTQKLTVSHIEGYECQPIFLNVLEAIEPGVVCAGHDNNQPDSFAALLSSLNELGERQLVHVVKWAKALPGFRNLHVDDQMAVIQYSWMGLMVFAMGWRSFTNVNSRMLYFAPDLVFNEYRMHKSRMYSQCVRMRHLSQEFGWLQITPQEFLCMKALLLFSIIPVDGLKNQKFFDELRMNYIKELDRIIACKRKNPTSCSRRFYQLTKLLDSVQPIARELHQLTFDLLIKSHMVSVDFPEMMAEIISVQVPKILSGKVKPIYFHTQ

| Vd [1] [L/kg] | half-life [2] [min] | bioavailability [3] [%] | AUC(0-inf) [4] [ng·h/mL] | clearance [5] [mL/min/kg] | half-life [6] [min] | Cmax [7] [µM] | remaining at 1 h, 10 µM [8] [%] | remaining at 1 h, 10 µM [9] [%] | Structure (SMILES) | IC50 (Androgen receptor [10]) [µM] | IC50 (Androgen receptor [11]) [µM] |
| --- | --- | --- | --- | --- | --- | --- | --- | --- | --- | --- | --- |
| 16.3 | > 180 | 97 | 15200 | 11.5 | 1000 | 0.92 | 100 | 98.4 | CN1C(=S)N(c2cnc(C#N)c(C(F)(F)F)c2)C(=O)C12Cc1ccc(OC3CCNCC3)cc1C2 (stereo not given) | – | – |
| 4.8 | > 180 | 61 | 27000 | 3.4 | 1170 | 3.69 | – | – | CNC(=O)c1cc2c(cc1F)CC1(C2)C(=O)N(c2cnc(C#N)c(C(F)(F)F)c2)C(=S)N1C(C)C (stereo not given) | – | – |
| – | – | – | – | – | – | – | – | – | CNC(=O)c1ccc2c(c1)CC1(C2)C(=O)N(c2ccc(C#N)c(C(F)(F)F)c2)C(=O)N1C (stereo not given) | > 30 | 1.66 |
| – | – | – | – | – | – | – | 100 | 52.3 | CN1C(=S)N(c2cnc(C#N)c(C(F)(F)F)c2)C(=O)C12Cc1ccc(O)cc1C2 (stereo not given) | – | – |
| – | – | – | – | – | – | – | – | – | CNC(=O)c1ccc2c(c1)CC1(C2)NC(=S)N(c2cnc(C#N)c(C(F)(F)F)c2)C1=O (stereo not given) | > 15 | > 15 |
| 2.3 | 118 | 92 | 39100 | 4 | 414 | 3.7 | – | – | CNC(=O)c1cc2c(cc1F)C[C@@]1(C2)C(=O)N(c2cnc(C#N)c(C(F)(F)F)c2)C(=S)N1C(C)C | – | – |
| – | – | – | – | – | – | – | – | – | CNC(=O)c1ccc2c(c1)CC1(C2)NC(=S)N(c2ccc(C#N)c(C(F)(F)F)c2)C1=O (stereo not given) | 11.2 | 5.01 |
| 1.9 | 135 | 80 | 99400 | 1.3 | 948 | 6.1 | – | – | CNC(=O)c1cc2c(cc1F)C[C@]1(C2)C(=O)N(c2cnc(C#N)c(C(F)(F)F)c2)C(=S)N1C(C)C | – | – |

| Structure (SMILES) | Vd [1] [L/kg] | half-life [2] [min] | bioavailability [3] [%] | AUC(0-inf) [4] [ng·h/mL] | clearance [5] [mL/min/kg] | half-life [6] [min] | Cmax [7] [µM] | remaining at 1 h, 10 µM [8] [%] | remaining at 1 h, 10 µM [9] [%] | IC50 (Androgen receptor [10]) [µM] | IC50 (Androgen receptor [11]) [µM] |
| --- | --- | --- | --- | --- | --- | --- | --- | --- | --- | --- | --- |
| CNC(=O)c1cc2c(cc1F)CC1(C2)C(=O)N(c2ccc(C#N)c(C(F)(F)F)c2)C(=S)N1C(C)C (stereo not given) | 1.7 | > 180 | 102 | 107000 | 1.6 | 888 | 8.85 | – | – | – | – |
| CNC(=O)c1cc2c(cc1F)C[C@@]1(C2)C(=O)N(c2ccc(C#N)c(C(F)(F)F)c2)C(=S)N1C(C)C | 1.8 | > 180 | 91 | 50400 | 3 | 312 | 5.81 | – | – | – | – |
| N#Cc1ncc(N2C(=O)C3(CCC3)N(c3ccc(O)cc3)C2=S)cc1C(F)(F)F | – | – | – | – | – | – | – | – | 78.7 | – | – |
| CNC(=O)c1cc2c(cc1F)C[C@]1(C2)C(=O)N(c2ccc(C#N)c(C(F)(F)F)c2)C(=S)N1C(C)C | 1.7 | > 180 | 63 | 104000 | 0.9 | 618 | 5.86 | – | – | – | – |
